According to patent US20080009418A1, “Selective Inhibitors” (Alchemia LTD., priority 2004, published 2008):

What was measured:
Mouse urotensin (mUR2) = biological target: T1, Mouse urotensin (mUR2) (Mus musculus, UniProt Q8VIH9); experiment: Radioligand binding, mouse urotensin mUR2 membranes, FlashPlate, [125I]-Urotensin II; settings: compound at 10 μM; for A11: inhibition of radioligand binding: [125I]-Urotensin II, FlashPlate
T1 construct: purchased Perkin Elmer Biosignal
T1 sequence (Q8VIH9 1-385): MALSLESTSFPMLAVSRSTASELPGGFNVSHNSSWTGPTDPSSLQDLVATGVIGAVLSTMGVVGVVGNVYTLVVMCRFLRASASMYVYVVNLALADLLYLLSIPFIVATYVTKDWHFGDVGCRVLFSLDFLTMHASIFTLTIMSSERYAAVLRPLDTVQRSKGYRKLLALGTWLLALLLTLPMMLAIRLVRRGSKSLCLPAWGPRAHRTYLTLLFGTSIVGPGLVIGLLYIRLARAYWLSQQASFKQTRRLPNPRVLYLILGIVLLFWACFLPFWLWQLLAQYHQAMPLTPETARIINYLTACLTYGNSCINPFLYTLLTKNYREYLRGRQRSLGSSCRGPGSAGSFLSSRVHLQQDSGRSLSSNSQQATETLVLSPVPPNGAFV
Procedure, shortened: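 Cloned mouse urotensin (mUR2) receptor membranes from Perkin Elmer Biosignal were immobilized in FlashPlate microplates using a proprietary coating. Each well got 19.5 μl buffer, then 0.5 μl of DMSO, reference ligand, or compound. Adding 5 μl of [125I]-Urotensin II, diluted to 5× final concentration in binding buffer, started binding. Plates were sealed with TopSeal-A and incubated 1 hour at room temperature in the dark. Wells were counted for 30 seconds each on a TopCount after a 60-second delay, and percentage inhibition was calculated.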

[1] = biological target: T2, Human neuropeptide Y (NPY-Y1) (Homo sapiens, UniProt P25929); experiment: Radioligand binding, human neuropeptide Y NPY-Y1 membranes, FlashPlate, [125I]-PYY; settings: compound at 10 μM; for A9: inhibition of radioligand binding: [125I]-PYY, FlashPlate
T2 construct: purchased Perkin Elmer Biosignal
T2 sequence (P25929 1-384): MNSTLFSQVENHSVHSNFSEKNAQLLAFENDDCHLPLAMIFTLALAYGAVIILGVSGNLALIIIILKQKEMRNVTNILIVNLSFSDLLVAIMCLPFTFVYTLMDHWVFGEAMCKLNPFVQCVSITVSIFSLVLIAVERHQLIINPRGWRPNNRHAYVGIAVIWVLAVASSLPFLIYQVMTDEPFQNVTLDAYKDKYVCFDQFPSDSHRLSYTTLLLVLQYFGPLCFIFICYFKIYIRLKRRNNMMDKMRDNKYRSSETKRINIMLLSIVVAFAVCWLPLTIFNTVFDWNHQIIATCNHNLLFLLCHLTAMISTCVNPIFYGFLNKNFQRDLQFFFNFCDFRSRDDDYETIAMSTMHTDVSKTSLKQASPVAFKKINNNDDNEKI
Procedure, shortened: (§1)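 Cloned human receptor membranes were coated onto FlashPlate wells and incubated with radioligand and compound (added from a 0.5 mM DMSO daughter plate) for 1 hour at room temperature in the dark. Scintillation counting gave percent inhibition, with DMSO defining total and reference ligand defining non-specific binding.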

Human neurokinin (NK1) = biological target: T3, Human neurokinin (NK1) (Homo sapiens, UniProt P25103); experiment: Radioligand binding, human neurokinin NK1 membranes, filtration, [125I]-Substance P; settings: compound at 10 μM; for A8: inhibition of radioligand binding: [125I]-Substance P, filtration
T3 construct: purchased Perkin Elmer Biosignal
T3 sequence (P25103 whole entry): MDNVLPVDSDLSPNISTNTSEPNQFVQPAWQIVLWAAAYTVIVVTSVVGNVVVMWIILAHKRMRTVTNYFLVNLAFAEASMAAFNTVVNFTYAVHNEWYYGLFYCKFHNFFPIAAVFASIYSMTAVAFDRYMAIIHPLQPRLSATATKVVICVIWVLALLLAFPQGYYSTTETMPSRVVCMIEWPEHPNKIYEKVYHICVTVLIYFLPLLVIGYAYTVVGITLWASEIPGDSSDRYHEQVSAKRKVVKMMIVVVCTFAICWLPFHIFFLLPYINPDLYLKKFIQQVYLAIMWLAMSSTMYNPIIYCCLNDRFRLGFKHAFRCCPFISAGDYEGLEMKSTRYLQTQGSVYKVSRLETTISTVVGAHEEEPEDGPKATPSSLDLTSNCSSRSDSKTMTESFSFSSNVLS
Procedure, shortened: (§2)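 Percent inhibition of radioligand binding measured on recombinant human membranes: NK1 with [125I]-Substance P, KOP with [3H]-Diprenorphine. Incubation 1 h at room temperature, then harvest onto 0.3% PEI-soaked filters, cold Tris-HCl pH 7.4 washes and scintillation counting; non-specific binding from reference ligand wells.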

Human Melanocortin (MC3) = biological target: T4, Human Melanocortin (MC3) (Homo sapiens, UniProt P41968); experiment: Radioligand binding, human melanocortin MC3 membranes, FlashPlate, [125I]-NDP-αMSH; settings: compound at 10 μM; for A3: inhibition of radioligand binding: [125I]-NDP-αMSH, FlashPlate
T4 construct: purchased Perkin Elmer Biosignal
T4 sequence (P41968 whole entry): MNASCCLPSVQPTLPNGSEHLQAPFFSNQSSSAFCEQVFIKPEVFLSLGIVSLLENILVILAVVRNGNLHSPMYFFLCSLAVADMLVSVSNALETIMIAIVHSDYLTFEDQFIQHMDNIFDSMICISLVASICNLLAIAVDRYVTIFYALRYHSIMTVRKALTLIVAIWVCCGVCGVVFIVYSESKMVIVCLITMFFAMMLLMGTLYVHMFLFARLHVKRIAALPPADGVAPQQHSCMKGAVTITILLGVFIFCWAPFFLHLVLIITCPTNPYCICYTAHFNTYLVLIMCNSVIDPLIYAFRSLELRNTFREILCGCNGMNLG
Procedure, shortened: as §1

Human κ-Opioid (KOP) = biological target: T5, Human κ-Opioid (KOP) (Homo sapiens, UniProt P41145); experiment: Radioligand binding, human κ-opioid (KOP) membranes, filtration, [3H]-Diprenorphine; settings: compound at 10 μM; for A2: inhibition of radioligand binding: [3H]-Diprenorphine, filtration
T5 construct: purchased Perkin Elmer Biosignal
T5 sequence (P41145 whole entry): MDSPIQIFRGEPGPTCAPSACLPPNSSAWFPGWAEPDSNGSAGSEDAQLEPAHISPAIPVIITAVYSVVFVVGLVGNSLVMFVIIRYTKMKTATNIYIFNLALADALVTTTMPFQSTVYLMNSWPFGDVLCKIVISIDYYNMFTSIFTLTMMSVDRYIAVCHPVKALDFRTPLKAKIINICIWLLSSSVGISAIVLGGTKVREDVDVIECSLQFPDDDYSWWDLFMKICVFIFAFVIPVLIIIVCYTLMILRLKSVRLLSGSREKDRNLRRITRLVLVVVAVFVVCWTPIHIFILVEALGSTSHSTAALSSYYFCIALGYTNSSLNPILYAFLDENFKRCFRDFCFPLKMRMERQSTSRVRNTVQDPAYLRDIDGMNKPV
Procedure, shortened: as §2

Human Melanocortin (MC4) = biological target: T6, Human Melanocortin (MC4) (Homo sapiens, UniProt P32245); experiment: Radioligand binding, human melanocortin MC4 membranes, FlashPlate, [125I]-NDP-αMSH; settings: compound at 10 μM; for A4: inhibition of radioligand binding: [125I]-NDP-αMSH, FlashPlate
T6 construct: purchased Perkin Elmer Biosignal
T6 sequence (P32245 whole entry): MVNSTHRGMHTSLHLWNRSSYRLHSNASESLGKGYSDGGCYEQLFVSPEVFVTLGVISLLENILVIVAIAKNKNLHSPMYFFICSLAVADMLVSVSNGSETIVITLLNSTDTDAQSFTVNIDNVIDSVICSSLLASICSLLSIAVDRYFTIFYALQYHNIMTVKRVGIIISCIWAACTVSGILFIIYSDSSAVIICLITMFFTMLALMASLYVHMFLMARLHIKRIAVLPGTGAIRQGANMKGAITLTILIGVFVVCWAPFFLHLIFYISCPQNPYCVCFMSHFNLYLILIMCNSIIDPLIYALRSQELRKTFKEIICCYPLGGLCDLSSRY
Procedure, shortened: as §1

Human μ-opioid (MOP) = biological target: T7, Human μ-opioid (MOP) (Homo sapiens, UniProt P35372); experiment: Radioligand binding, human μ-opioid (MOP) membranes, FlashPlate, [3H]-Naloxone; settings: compound at 10 μM; for A7: inhibition of radioligand binding: [3H]-Naloxone, FlashPlate
T7 construct: purchased Perkin Elmer Biosignal
T7 sequence (P35372 whole entry): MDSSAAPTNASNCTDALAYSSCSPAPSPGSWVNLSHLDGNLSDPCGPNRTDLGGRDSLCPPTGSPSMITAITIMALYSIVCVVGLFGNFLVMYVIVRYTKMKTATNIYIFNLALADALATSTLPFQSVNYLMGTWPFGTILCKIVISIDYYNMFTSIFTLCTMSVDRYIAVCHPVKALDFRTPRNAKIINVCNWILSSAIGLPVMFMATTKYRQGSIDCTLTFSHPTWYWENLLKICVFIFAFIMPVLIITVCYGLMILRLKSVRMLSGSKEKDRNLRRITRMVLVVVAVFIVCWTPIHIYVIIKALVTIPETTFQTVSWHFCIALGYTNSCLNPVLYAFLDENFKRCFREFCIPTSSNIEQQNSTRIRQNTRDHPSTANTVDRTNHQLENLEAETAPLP
Procedure, shortened: as §1

Human opioid (ORL1) = biological target: T8, Human opioid (ORL1) (Homo sapiens, UniProt P41146); experiment: Radioligand binding, human opioid ORL1 membranes, FlashPlate, [125I]-Nociceptin; settings: compound at 10 μM; for A10: inhibition of radioligand binding: [125I]-Nociceptin, FlashPlate
T8 construct: purchased Perkin Elmer Biosignal
T8 sequence (P41146 whole entry): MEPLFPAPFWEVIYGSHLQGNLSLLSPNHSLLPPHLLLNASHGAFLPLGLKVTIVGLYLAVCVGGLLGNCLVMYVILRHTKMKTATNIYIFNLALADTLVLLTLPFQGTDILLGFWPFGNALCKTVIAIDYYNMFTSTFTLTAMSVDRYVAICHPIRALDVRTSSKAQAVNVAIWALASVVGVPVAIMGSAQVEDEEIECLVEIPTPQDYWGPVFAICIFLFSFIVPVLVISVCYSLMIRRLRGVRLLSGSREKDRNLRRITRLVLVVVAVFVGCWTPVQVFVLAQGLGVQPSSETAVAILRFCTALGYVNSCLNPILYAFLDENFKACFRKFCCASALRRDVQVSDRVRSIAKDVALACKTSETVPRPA
Procedure, shortened: as §1

Human δ-opioid (DOP) = biological target: T9, Human δ-opioid (DOP) (Homo sapiens, UniProt P41143); experiment: Radioligand binding, human δ-opioid (DOP) membranes, FlashPlate, [3H]-Bremazocine; settings: compound at 10 μM; for A1: inhibition of radioligand binding: [3H]-Bremazocine, FlashPlate
T9 construct: purchased Perkin Elmer Biosignal
T9 sequence (P41143 whole entry): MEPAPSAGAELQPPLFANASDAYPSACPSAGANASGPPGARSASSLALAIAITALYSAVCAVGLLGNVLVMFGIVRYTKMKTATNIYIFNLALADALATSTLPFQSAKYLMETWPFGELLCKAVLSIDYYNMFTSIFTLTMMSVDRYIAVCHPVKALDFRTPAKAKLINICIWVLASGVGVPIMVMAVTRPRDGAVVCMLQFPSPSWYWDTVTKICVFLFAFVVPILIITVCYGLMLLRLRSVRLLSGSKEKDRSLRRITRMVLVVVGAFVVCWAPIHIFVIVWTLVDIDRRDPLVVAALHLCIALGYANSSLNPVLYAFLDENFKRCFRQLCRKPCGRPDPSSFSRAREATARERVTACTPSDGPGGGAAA
Procedure, shortened: as §1

[2] = biological target: T10, Human melanin-concentrating hormone (MCH1) (Homo sapiens, UniProt Q99705); experiment: Radioligand binding, human melanin-concentrating hormone MCH1 membranes, FlashPlate, [125I]-S36057; settings: compound at 10 μM; for A6: inhibition of radioligand binding: [125I]-S36057, FlashPlate
T10 construct: purchased Perkin Elmer Biosignal
T10 sequence (Q99705 whole entry): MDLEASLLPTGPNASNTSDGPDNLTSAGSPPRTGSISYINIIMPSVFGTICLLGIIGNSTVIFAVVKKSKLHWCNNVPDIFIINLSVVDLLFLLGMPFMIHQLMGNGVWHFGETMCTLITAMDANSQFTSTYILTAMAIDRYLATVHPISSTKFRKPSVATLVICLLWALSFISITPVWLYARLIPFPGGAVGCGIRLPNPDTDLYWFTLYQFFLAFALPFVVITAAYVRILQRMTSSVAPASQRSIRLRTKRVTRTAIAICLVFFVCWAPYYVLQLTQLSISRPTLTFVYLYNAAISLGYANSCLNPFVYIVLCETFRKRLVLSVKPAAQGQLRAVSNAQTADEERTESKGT
Procedure, shortened: as §1

Human melanocortin (MC5) = biological target: T11, Human melanocortin (MC5) (Homo sapiens, UniProt P33032); experiment: Radioligand binding, human melanocortin MC5 membranes, FlashPlate, [125I]-NDP-αMSH; settings: compound at 10 μM; for A5: inhibition of radioligand binding: [125I]-NDP-αMSH, FlashPlate
T11 construct: purchased Perkin Elmer Biosignal
T11 sequence (P33032 whole entry): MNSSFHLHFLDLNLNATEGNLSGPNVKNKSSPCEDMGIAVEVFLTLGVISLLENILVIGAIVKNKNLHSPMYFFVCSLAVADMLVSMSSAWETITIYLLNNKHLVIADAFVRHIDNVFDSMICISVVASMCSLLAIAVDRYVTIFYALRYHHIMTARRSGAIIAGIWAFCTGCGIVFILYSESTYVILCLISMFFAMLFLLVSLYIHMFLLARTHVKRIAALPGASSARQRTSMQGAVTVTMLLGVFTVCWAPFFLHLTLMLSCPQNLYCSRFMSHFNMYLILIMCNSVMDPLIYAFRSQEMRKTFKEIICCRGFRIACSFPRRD
Procedure, shortened: as §1

COCC1OC(OCc2ccc3ccccc3c2)C(NC(=O)CNC(=N)N)C(OCc2ccc3ccccc3c2)C1O (stereo not drawn) [compound 247]
A11: inhibition of radioligand binding (Mouse urotensin (mUR2)): − (“−” indicates less than 50% inhibition at 10 μM) | A9: inhibition of radioligand binding [1]: − (“−” indicates less than 50% inhibition at 10 μM) | A8: inhibition of radioligand binding (Human neurokinin (NK1)): + (“+” indicates greater than 50% inhibition at 10 μM) | A3: inhibition of radioligand binding (Human Melanocortin (MC3)): + (“+” indicates greater than 50% inhibition at 10 μM) | A2: inhibition of radioligand binding (Human κ-Opioid (KOP)): − (“−” indicates less than 50% inhibition at 10 μM) | A4: inhibition of radioligand binding (Human Melanocortin (MC4)): + (“+” indicates greater than 50% inhibition at 10 μM) | A7: inhibition of radioligand binding (Human μ-opioid (MOP)): − (“−” indicates less than 50% inhibition at 10 μM) | A10: inhibition of radioligand binding (Human opioid (ORL1)): − (“−” indicates less than 50% inhibition at 10 μM) | A1: inhibition of radioligand binding (Human δ-opioid (DOP)): − (“−” indicates less than 50% inhibition at 10 μM) | A6: inhibition of radioligand binding [2]: − (“−” indicates less than 50% inhibition at 10 μM) | A5: inhibition of radioligand binding (Human melanocortin (MC5)): + (“+” indicates greater than 50% inhibition at 10 μM)

COCC1OC(OCc2ccc(Cl)cc2)C(NC(=O)CCN)C(OCc2ccc(Cl)cc2)C1O (stereo not drawn) [compound 201]
A11: inhibition of radioligand binding (Mouse urotensin (mUR2)): − (“−” indicates less than 50% inhibition at 10 μM) | A9: inhibition of radioligand binding [1]: − (“−” indicates less than 50% inhibition at 10 μM) | A8: inhibition of radioligand binding (Human neurokinin (NK1)): + (“+” indicates greater than 50% inhibition at 10 μM) | A3: inhibition of radioligand binding (Human Melanocortin (MC3)): − (“−” indicates less than 50% inhibition at 10 μM) | A2: inhibition of radioligand binding (Human κ-Opioid (KOP)): − (“−” indicates less than 50% inhibition at 10 μM) | A4: inhibition of radioligand binding (Human Melanocortin (MC4)): − (“−” indicates less than 50% inhibition at 10 μM) | A7: inhibition of radioligand binding (Human μ-opioid (MOP)): − (“−” indicates less than 50% inhibition at 10 μM) | A10: inhibition of radioligand binding (Human opioid (ORL1)): − (“−” indicates less than 50% inhibition at 10 μM) | A1: inhibition of radioligand binding (Human δ-opioid (DOP)): − (“−” indicates less than 50% inhibition at 10 μM) | A6: inhibition of radioligand binding [2]: − (“−” indicates less than 50% inhibition at 10 μM) | A5: inhibition of radioligand binding (Human melanocortin (MC5)): + (“+” indicates greater than 50% inhibition at 10 μM)

COC[C@H]1OC(OCc2ccccc2)[C@H](NC(=O)CNC(=N)N)[C@@H](OCc2ccc(-c3ccccc3)cc2)[C@@H]1O (stereo partly drawn) [compound 23]
A11 radioligand binding inhibition (Mouse urotensin (mUR2); mouse urotensin mUR2 membranes): − (“−” indicates less than 50% inhibition at 10 μM) | A9 radioligand binding inhibition ([1]; human NPY-Y1 membranes): − (“−” indicates less than 50% inhibition at 10 μM) | A8 radioligand binding inhibition (Human neurokinin (NK1); human neurokinin NK1 membranes): + (“+” indicates greater than 50% inhibition at 10 μM) | A3 radioligand binding inhibition (Human Melanocortin (MC3); human melanocortin MC3 membranes): − (“−” indicates less than 50% inhibition at 10 μM) | A2 radioligand binding inhibition (Human κ-Opioid (KOP); human κ-opioid (KOP) membranes): − (“−” indicates less than 50% inhibition at 10 μM) | A4 radioligand binding inhibition (Human Melanocortin (MC4); human melanocortin MC4 membranes): − (“−” indicates less than 50% inhibition at 10 μM) | A7 radioligand binding inhibition (Human μ-opioid (MOP); human μ-opioid (MOP) membranes): − (“−” indicates less than 50% inhibition at 10 μM) | A10 radioligand binding inhibition (Human opioid (ORL1); human ORL1 membranes): − (“−” indicates less than 50% inhibition at 10 μM) | A1 radioligand binding inhibition (Human δ-opioid (DOP); human δ-opioid (DOP) membranes): − (“−” indicates less than 50% inhibition at 10 μM) | A6 radioligand binding inhibition ([2]; human MCH1 membranes): + (“+” indicates greater than 50% inhibition at 10 μM) | A5 radioligand binding inhibition (Human melanocortin (MC5); human melanocortin MC5 membranes): + (“+” indicates greater than 50% inhibition at 10 μM)
